Reference: publication PMC9224512, “New Insights into the Determinants of Specificity in Human Type I Arginase: Generation of a Mutant That Is Only Active with Agmatine as Substrate” (International Journal of Molecular Sciences, 2022)
Changes are numbered by the printed parent chain.

Key:
Assay type in all cases: biochemical
[1] = target: T1, type I human arginase D181T/V182E + ins F (Homo sapiens, UniProt P05089, D181E/D181T/INS180T/V182E/V182F); assay: Kinetic and inhibition studies, D181T/V182E + ins F; settings: substrate arginine
T1 sequence (P05089 with tags, fused parts or gaps INS180T/D181E/V182F): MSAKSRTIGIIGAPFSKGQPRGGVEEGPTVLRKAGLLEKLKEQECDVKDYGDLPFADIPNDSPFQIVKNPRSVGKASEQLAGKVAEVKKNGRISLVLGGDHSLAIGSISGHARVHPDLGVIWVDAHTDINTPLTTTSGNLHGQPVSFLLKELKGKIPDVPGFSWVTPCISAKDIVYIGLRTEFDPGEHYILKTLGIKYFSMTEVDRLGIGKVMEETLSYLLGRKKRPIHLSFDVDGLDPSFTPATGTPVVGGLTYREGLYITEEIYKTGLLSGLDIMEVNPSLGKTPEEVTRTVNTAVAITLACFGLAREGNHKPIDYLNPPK
Procedure: (§1) Bacterial cultures were grown with shaking at 37 °C in Luria Broth media, in the presence of ampicillin (100 μg/mL). The wild-type and mutant human liver arginase cDNAs were directionally cloned into the pBluescript II KS(+) expression vector and then expressed in E. coli JM109, following induction with 1 mM isopropyl β-D-thiogalactopyranoside. The bacterial cells were disrupted by sonication on ice (5 × 30 s pulses), centrifuged for 20 min at 12,000× g, and the obtained supernatant was precipitated with ammonium sulfate (60% saturation). The pellet, collected by centrifugation at 12,000× g for 10 min, was re-suspended in buffer 5 mM Tris–HCl (pH 7.5) containing 2 mM MnCl2 and dialyzed for 6 h at 4 °C against the same buffer. After incubation with 5 mM MnCl2 for 10 min at 60 °C, the enzyme variants were purified as previously described. The purity of the enzymes was evaluated by SDS–PAGE stained by Coomassie blue and immunodetection using an anti- rat arginase I antibody.
(§2) The single, double, triple, and chimera variants of human arginase type I were obtained by PCR, using the QuickChange site-directed mutagenesis kit (Stratagene, La Jolla, CA, USA); the plasmid pBluescript II KS(+) containing the human liver arginase cDNA was used as template. To obtain the chimeric species of human arginase type I, serial mutations were made in each loop to be modified, using as template DNA the wild-type arginase gene or the previous done mutation, subcloned in the plasmid pBluescript II KS (+). Specifically, the residues present in the arginase structure were replaced by those corresponding to the agmatinase sequence of E. coli.
(§3) All assays were initiated by adding the enzyme to a previously equilibrated buffer with the substrate in solution (the concentrations of used substrates were between 0.2–3 fold the Km). Urea was determined by a colorimetric method with α-isonitrosopropiophenone. The protein concentrations were determined by the Bradford’s method, with bovine serum albumin as standard. Initial velocity and enzymatic inhibition experiments were performed in duplicate and repeated three times. The inhibitory patterns were initially determined by double reciprocal plots and re-plots of intercepts and slopes versus inhibitor concentrations. […] Velocities are expressed as μmol of urea/10 min.

[2] = target: T2, type I human arginase D181T/V182E (Homo sapiens, UniProt P05089, D181T/V182E); assay: Kinetic and inhibition studies, D181T/V182E double mutant; settings: substrate arginine
T2 construct: made in house; host or cells: E. coli JM109
T2 sequence (P05089 1-322 D181T/V182E): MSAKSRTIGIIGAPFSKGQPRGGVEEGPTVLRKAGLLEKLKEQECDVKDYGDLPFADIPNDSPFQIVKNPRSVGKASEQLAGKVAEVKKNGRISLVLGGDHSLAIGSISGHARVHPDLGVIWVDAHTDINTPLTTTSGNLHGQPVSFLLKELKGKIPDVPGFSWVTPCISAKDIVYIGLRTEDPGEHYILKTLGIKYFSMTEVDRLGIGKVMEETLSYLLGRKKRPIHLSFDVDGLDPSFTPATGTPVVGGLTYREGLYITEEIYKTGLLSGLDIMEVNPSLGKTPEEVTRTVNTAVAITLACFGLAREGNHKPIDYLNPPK
Procedure: as §1, §2, §3

[3] = target: T3, Chimera A1 (I129T/N130Y/T131A) of human arginase type I (Homo sapiens, UniProt P05089, I129T/N130Y/T131A); assay: Kinetic and inhibition studies, Chimera A1
T3 sequence (P05089 1-322 I129T/N130Y/T131A): T2 sequence (P05089 1-322 D181T/V182E) with I129T, N130Y, T131A, T181D, E182V
Procedure: as §1, §2, §3

[4] = target: T4, human arginase type I S137C-N139D (Homo sapiens, UniProt P05089, N139D/S137C); assay: Kinetic and inhibition studies, S137C-N139D mutant
T4 construct: made in house; host or cells: E. coli JM109
T4 sequence (P05089 1-322 S137C/N139D): T2 sequence (P05089 1-322 D181T/V182E) with S137C, N139D, T181D, E182V
Procedure: as §1, §2
All assays were initiated by adding the enzyme to a previously equilibrated buffer with the substrate in solution (the concentrations of used substrates were between 0.2–3 fold the Km). Urea was determined by a colorimetric method with α-isonitrosopropiophenone. The protein concentrations were determined by the Bradford’s method, with bovine serum albumin as standard. […]

[5] = target: T5, human arginase type I N139D (Homo sapiens, UniProt P05089, N139D); assay: Kinetic and inhibition studies, N139D mutant
T5 sequence (P05089 1-322 N139D): T2 sequence (P05089 1-322 D181T/V182E) with N139D, T181D, E182V
Procedure: as §1, §2, §3

[6] = substrate = labelled compound, pH 9.5, 2 mM Mn2+

NCCC[C@H](N)C(=O)O [Ornithine, L-ornithine]
Inhibition type [1]: Competitive
Kis [1]: 18 ± 6 mM
Inhibition type [2]: mixed-type inhibition
Kis (Ki) [2]: 71 ± 12 mM
Inhibition type ([3]; substrate arginine): Competitive
Kis (Ki) ([3]; substrate arginine): 60 ± 2 mM
Ki ([4]; read-out: Ki^orn): 8.4 mM
Ki ([5]; read-out: Ki^orn): 6.2 mM

N=C(N)NCCC[C@H](N)C(=O)O [Arginine, L-arginine]
kcat [1]: 8.1 ± 1 s⁻¹
kcat, times lower than the wild-type arginase [1]: 24 times
Km ([1]; pH 9.5, 2 mM Mn2+): 20 ± 5 mM
kcat [2]: 188 ± 10 s⁻¹
Km ([2]; pH 9.5, 2 mM Mn2+): 32 ± 5 mM
kcat ([3]; substrate = labelled compound, n/a = no activity with the substrate): 6.2 ± 0.4 s⁻¹
Km [3, 6]: 2.5 ± 0.5 mM
arginase activity, % of the enzymatic activity of wild-type arginase ([3]; substrate arginine): 3.5%
decrease of catalytic constant (kcat) compared with wild-type enzyme ([3]; substrate arginine): approximately 30 times
kcat ([4]; substrate = labelled compound): 83 s⁻¹
Km [4, 6]: 10.8 mM
kcat ([5]; substrate = labelled compound): 64 s⁻¹
Km [5, 6]: 4.4 mM
